Tests used:
Assay type in all cases: in vitro ADME
[1] = system: AKR1C; test: AKR1C activity in rat liver subcellular fraction; conditions: 100 µM sesquiterpene, control 14.8 ± 1.8
Experimental: (§1) Enzyme activities were assayed in human and rat liver cytosolic and microsomal fractions. The enzyme assays (each performed in 4–8 replicates) were repeated three times (HPLC measurement of CYP activities was repeated only twice, Table 3). Inhibition studies were carried out by incubation of specific substrates in the presence of sesquiterpenes (in the range 0–100 µM).
(§2) The assays of all other enzymes were based on spectrophotometric detection of product formed or detection of decreasing substrate/cofactor levels using microplate reader Tecan Infinite M200 in cytosolic or microsomal fractions. Enzyme activities were determined using slight modifications of previously-published methods: carbonyl reducing enzymes (AKR1A, AKR1C, CBR1 [45], NQO1 [46]), UDP-glucuronosyltransferase (UGT [47]), sulfotransferase (SULT [48]), and cytosolic glutathione-S-transferase (GST [49]).
(§3) Sesquiterpenes CNER, TNER and FAR, non-volatile liquids, were pipetted, and proper concentration was calculated according to density. All compounds were dissolved in DMSO. The final solvent concentration in the inhibition assays was 1%, which had no effect on the enzyme activity (data not shown). Non-enzymatic interference of sesquiterpenes with some compounds in the reaction mixtures (e.g., fluorescence enhancing or quenching) was considered and excluded. All experiments were performed in three replicates, if not stated otherwise.
(§4) CNER, TNER and FAR at a fixed concentration of 100 µM were screened for inhibition of cytosolic AKR1A1, AKR1C, CBR1, NQO1, SULT, and GST, and microsomal CYPs and UGT. The degree of inhibition caused by sesquiterpenes was compared with non-inhibited control reactions, which contained solvent without sesquiterpenes.

[2] = biological target: T1, NQO1 (Homo sapiens, UniProt P15559); test: NQO1 activity in human liver subcellular fraction; conditions: 100 µM sesquiterpene, control 6.38 ± 0.34
T1 construct: Frozen liver (both rat and human) was thawed; from tissue; host or cells: human liver cytosolic fraction
T1 sequence (P15559 whole entry): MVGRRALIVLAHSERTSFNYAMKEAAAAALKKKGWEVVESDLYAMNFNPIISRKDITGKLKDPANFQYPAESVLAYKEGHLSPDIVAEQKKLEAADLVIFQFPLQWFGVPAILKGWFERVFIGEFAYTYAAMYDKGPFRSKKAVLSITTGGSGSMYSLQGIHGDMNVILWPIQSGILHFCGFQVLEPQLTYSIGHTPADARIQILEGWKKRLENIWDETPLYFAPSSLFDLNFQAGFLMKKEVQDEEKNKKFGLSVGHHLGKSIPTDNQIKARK
Experimental: as §1, §2, §3, §4

[3] = biological target: T2, CYP1A2 (Rattus norvegicus, UniProt P04799); test: CYP1A2 (EROD activity, 7-ethoxyresorufin O-deethylation) in rat liver microsomes; conditions: for Specific Activity, CYP1A2 (EROD activity): in the presence of 100 µM sesquiterpene, control 22.8 ± 0.1
T2 construct: Frozen liver (both rat and human) was thawed; from tissue; host or cells: rat liver microsomal fraction
T2 sequence (P04799 1-513): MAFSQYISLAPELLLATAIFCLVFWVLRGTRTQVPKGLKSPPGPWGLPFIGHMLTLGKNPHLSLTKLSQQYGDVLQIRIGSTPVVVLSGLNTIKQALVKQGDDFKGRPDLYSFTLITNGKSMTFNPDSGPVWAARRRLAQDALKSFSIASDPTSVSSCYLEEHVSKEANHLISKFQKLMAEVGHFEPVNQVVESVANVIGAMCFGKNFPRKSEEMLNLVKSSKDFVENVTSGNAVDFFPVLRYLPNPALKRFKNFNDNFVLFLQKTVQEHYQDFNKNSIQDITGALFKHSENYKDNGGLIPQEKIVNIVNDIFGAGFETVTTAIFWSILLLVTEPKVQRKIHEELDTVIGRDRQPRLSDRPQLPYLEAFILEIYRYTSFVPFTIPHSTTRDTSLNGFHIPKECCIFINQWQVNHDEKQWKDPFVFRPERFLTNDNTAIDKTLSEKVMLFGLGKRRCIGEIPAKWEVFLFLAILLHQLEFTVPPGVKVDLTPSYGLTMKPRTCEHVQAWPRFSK
Experimental: as §1
Enzyme activities of individual CYP forms were measured according to established protocols. The following microsomal CYP activities were tested: CYP2A6, coumarin 7-hydroxylation; CYP2B6, 7-ethoxy-4-(trifluoromethyl)coumarin 7-deethylation, CYP2C9, diclofenac 4′-hydroxylation, CYP2C19 assay, S-mephenytoin 4′-hydroxylation, CYP2D6 on bufuralol 1′-hydroxylation, CYP2E1, chlorzoxazone 6-hydroxylation and CYP3A4, testosterone 6β-hydroxylation, and midazolam 1′-hydroxylation. Activities were measured using the Prominence HPLC system (Shimadzu, Kyoto, Japan), equipped with a LiChroCART 250-4 LiChrospher 100 RP-18 column or Chromolith®HighResolution RP-18 end-capped column (Merck, Darmstadt, Germany) and UV or fluorescence detection, according to the cited literature. Further incubation details are described either in the corresponding references, as well as in the papers from this laboratory e.g., [42, 43, 44]. CYP1A2, 7-ethoxyresorufin O-deethylation, and CYP3A4/2B6 (human), CYP2B1 (rat), benzyloxyresorufin O-debenzylation were measured using the microplate reader Tecan Infinite M200 (Tecan Group; Mannedorf, Switzerland).
as §3, §4
The concentration of sesquiterpenes required for 50% inhibition of enzyme activity, the IC50 value, was determined. Their final concentrations in the reaction mixture were proposed to cover the entire inhibitory range of these compounds (1–100 µM). The IC50 values for each sesquiterpene were determined by plotting sigmoidal dose response curves of specific enzyme activity vs. logarithm of sesquiterpene concentration using GraphPad Prism version 6.07 for Windows (GraphPad Software Inc., La Jolla, CA, USA).
The kinetic inactivation study of the CYP1A2 (EROD activity) and CYP2B/3A (BROD activity), both in rat and human, with TNER, was performed to find out the mechanism of enzyme inhibition by this sesquiterpene. Mechanism of EROD and BROD inhibition was tested at the final ethoxyresorufin or benzyloxyresorufin concentrations 0.5–5.0 µM. The concentration of TNER was 5.0 µM.
Experimental data were fitted to the Michaelis-Menten equation, basic kinetic parameters were determined using the program GraphPad Prism version 6.07 for Windows. The type of inhibition was estimated using a Lineweaver-Burk (double-reciprocal) plot.

[4] = biological target: T3, CBR1 (Homo sapiens, UniProt P16152); test: CBR1 activity in human liver subcellular fraction; conditions: 100 µM sesquiterpene, control 6.62 ± 1.84
T3 construct: Frozen liver (both rat and human) was thawed; from tissue; host or cells: human liver cytosolic fraction
T3 sequence (P16152 1-277): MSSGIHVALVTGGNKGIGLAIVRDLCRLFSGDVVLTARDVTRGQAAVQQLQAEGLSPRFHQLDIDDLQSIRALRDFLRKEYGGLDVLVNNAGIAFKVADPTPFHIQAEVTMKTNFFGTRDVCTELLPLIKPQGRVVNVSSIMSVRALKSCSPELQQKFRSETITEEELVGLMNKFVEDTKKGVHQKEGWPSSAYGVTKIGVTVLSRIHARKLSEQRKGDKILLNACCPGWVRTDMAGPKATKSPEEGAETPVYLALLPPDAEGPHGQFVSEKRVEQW
Experimental: as §1, §2, §3, §4

Row | Compound | Specific activity, AKR1C [1] | Specific activity, NQO1 [2] | IC50 ([3]; rat liver microsomes) | Specific Activity, CYP1A2 (EROD activity) ([3]; rat liver microsomes) | Specific activity, CBR1 [4] | Ki ([3]; rat liver microsomes, EROD activity) | K’M ([3]; rat liver microsomes, ethoxyresorufin 0.5–5.0 µM in the presence of TNER 5 µM, KM without TNER 1.64 ± 0.45) | V’MAX ([3]; rat liver microsomes, ethoxyresorufin 0.5–5.0 µM in the presence of TNER 5 µM, VMAX without TNER 4.32 ± 0.47) | type of inhibition, CYP1A2 (EROD) ([3]; rat microsomes, 5 µM TNER, ethoxyresorufin 0.5–5.0 µM)
1 | C=CC(C)(O)CC/C=C(/C)CCC=C(C)C (stereo not drawn) [CNER, cis-nerolidol] | 14.6 ± 2.1 nmol/mg/min | 5.44 ± 0.82 nmol/mg/min | 5.7 µM | 2.16 ± 0.04 pmol/mg/min | 7.17 ± 0.56 nmol/mg/min |  |  |  | 
2 | CC(C)=CCC/C(C)=C/CC/C(C)=C/CO [FAR, farnesol] | 14.9 ± 1.5 nmol/mg/min | 5.23 ± 1.03 nmol/mg/min | 16.1 µM | 1.55 ± 0.02 pmol/mg/min | 6.83 ± 0.70 nmol/mg/min |  |  |  | 
3 | C=CC(C)(O)CC/C=C(\C)CCC=C(C)C (stereo not drawn) [TNER, trans-nerolidol] | 14.8 ± 1.6 nmol/mg/min | 5.53 ± 0.51 nmol/mg/min | 4.38 µM | 1.53 ± 0.03 pmol/mg/min | 5.67 ± 0.67 nmol/mg/min | 4.68 ± 0.66 µM | 1.89 ± 0.49 µM | 2.21 ± 0.24 nM/min | non-competitive
